Experimental data: ChEMBL document CHEMBL1926541, “Molecular docking of γ-sitosterol with some targets related to diabetes” (2012)

Legend:
Type in all cases: functional
Rattus norvegicus [1] = assay: Antidiabetic activity in STZ-induced diabetic rat model assessed as reduction in glucose-6-phosphatase at 20 mg/kg, po qd for 21 days; design: scale not given: the % may be the effect or the level left
Rattus norvegicus [2] = assay: Antidiabetic activity in STZ-induced diabetic rat model assessed as reduction in glycosylated haemoglobin at 20 mg/kg, po qd for 21 days; design: scale not given: the % may be the effect or the level left
Rattus norvegicus [3] = assay: Antidiabetic activity in STZ-induced diabetic rat model assessed as increase in muscle glycogen at 20 mg/kg, po qd for 21 days
Rattus norvegicus [4] = assay: Antidiabetic activity in STZ-induced diabetic rat model assessed as increase in plasma insulin level at 20 mg/kg, po qd for 21 days
Rattus norvegicus [5] = assay: Antidiabetic activity in STZ-induced diabetic rat model assessed as increase in liver glycogen at 20 mg/kg, po qd for 21 days
Rattus norvegicus [6] = assay: Antidiabetic activity in STZ-induced diabetic rat model assessed as increase in glucose 6 phosphate dehydrogenase at 20 mg/kg, po qd for 21 days

## CC[C@H](CC[C@@H](C)[C@H]1CC[C@H]2[C@@H]3CC=C4C[C@@H](O)CC[C@]4(C)[C@H]3CC[C@]12C)C(C)C [BETA-SITOSTEROL]
Rattus norvegicus [1]
  Activity: 40.07%
Rattus norvegicus [2]
  Activity: 66.96%
Rattus norvegicus [3]
  Activity: 76.86%
Rattus norvegicus [4]
  Activity: 69.05%
Rattus norvegicus [5]
  Activity: 77.15%
Rattus norvegicus [6]
  Activity: 38.52%
